In patent US20220024906A1, “COMPOUNDS AND COMPOSITIONS FOR TREATING CONDITIONS ASSOCIATED WITH STING ACTIVITY” (IFM Due, Inc., priority 2020, published 2022) one finds EC50 data, which are given here for 35 molecules.

The structures appear in SMILES notation.

For this test, the target named is T1, hSTING (Homo sapiens, UniProt Q86WV6, G230A/H232R/R293Q/R71H).
T1 construct: host or cells: THP1-Dual KO-IFNAR2 cells
T1 sequence (Q86WV6 whole entry R71H/G230A/H232R/R293Q): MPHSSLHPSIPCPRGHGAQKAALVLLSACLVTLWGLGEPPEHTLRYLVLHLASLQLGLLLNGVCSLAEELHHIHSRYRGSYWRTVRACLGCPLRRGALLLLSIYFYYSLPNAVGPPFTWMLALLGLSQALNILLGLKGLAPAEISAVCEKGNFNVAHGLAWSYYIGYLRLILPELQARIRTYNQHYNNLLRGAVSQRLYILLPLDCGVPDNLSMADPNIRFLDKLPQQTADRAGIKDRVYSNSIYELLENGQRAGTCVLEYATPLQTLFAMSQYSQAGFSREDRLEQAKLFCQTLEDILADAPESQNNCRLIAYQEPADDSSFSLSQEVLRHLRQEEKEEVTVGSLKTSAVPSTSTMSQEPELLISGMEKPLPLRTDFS
Put plainly: STING reporter assay (luciferase) in THP1-Dual KO-IFNAR2 cells stimulated with 2′3′cGAMP. The class given is cell-based. The note with it: 15 μM 2′3′cGAMP transfected, 24 h, luciferase reporter activity. How it is done:
STING pathway activation by the compounds described herein was measured using THP1-Dual™ cells (KO-IFNAR2).
THP1-Dual™ KO-IFNAR2 Cells (obtained from invivogen) were maintained in RPMI, 10% FCS, 5 ml P/S, 2 mM L-glut, 10 mM Hepes, and 1 mM sodium pyruvate. Compounds were spotted in empty 384 well tissue culture plates (Greiner 781182) by Echo for a final concentration of 0.0017-100 μM. Cells were plated into the TC plates at 40 μL per well, 2×10E6 cells/mL. For activation with STING ligand, 2′3′cGAMP (MW 718.38, obtained from Invivogen), was prepared in Optimem media.
The following solutions were prepared for each 1×384 plate: • Solution A: 2 mL Optimem with one of the following stimuli: • 60 μL of 10 mM 2′3′cGAMP→150 μM stock • Solution B: 2 mL Optimem with 60 μL Lipofectamine 2000→Incubate 5 min at RT
2 mL of solution A and 2 ml Solution B was mixed and incubated for 20 min at room temperature (RT). 20 μL of transfection solution (A+B) was added on top of the plated cells, with a final 2′3′cGAMP concentration of 15 μM. The plates were then centrifuged immediately at 340 g for 1 minute, after which they were incubated at 37° C., 5% CO2, >98% humidity for 24 h. Luciferase reporter activity was then measured. EC50 values were calculated by using standard methods known in the art.
Luciferase reporter assay: 10 μL of supernatant from the assay was transferred to white 384-plate with flat bottom and squared wells. One pouch of QUANTI-Luc™ Plus was dissolved in 25 mL of water. 100 μL of QLC Stabilizer per 25 mL of QUANTI-Luc™ Plus solution was added. 50 μL of QUANTI-Luc™ Plus/QLC solution per well was then added. Luminescence was measured on a Platereader (e.g., Spectramax I3X (Molecular Devices GF3637001)).
Luciferase reporter activity was then measured. EC50 values were calculated by using standard methods known in the art.
Background: A reporter such as luciferase makes a cellular process visible.
Turning to `O=C(Cc1cnc(N2CCC(F)(F)CC2)c(Cl)c1)Nc1c[nH]c2ccc(Br)cc12` [Compound 101, N-(5-bromo-1H-indol-3-yl)-2-(5-chloro-6-(4,4-difluoropiperidin-1-yl)pyridin-3-yl)acetamide], the EC50 – broadly, the concentration needed to bring the measured effect to its halfway point – lay within 0.2 to 1 µM. In the case of `CC(C)(Oc1ccccc1)C(=O)Nc1c[nH]c2cc(F)c(F)cc12` [Compound 102, N-(5,6-difluoro-1H-indol-3-yl)-2-methyl-2-phenoxypropanamide], the half-maximal effective concentration (EC50) lay in the range of 5 to 100 µM.

In the case of `CCOc1ccc(CC(=O)Nc2c[nH]c3cc(F)c(F)cc23)cc1C(F)(F)F` [Compound 103, N-(5,6-difluoro-1H-indol-3-yl)-2-(4-ethoxy-3-(trifluoromethyl)phenyl)acetamide], the EC50 lay within 1 to 5 µM. To `O=C(CCc1ccc(OC(F)(F)F)cc1)Nc1c[nH]c2cc(F)c(F)cc12` [Compound 104, N-(5,6-difluoro-1H-indol-3-yl)-3-(4-(trifluoromethoxy)phenyl)propanamide] belongs 0.2 to 1 µM; to `Cc1ccc(OC(C)(C)C(=O)Nc2c[nH]c3cc(F)c(F)cc23)nc1` [Compound 105, N-(5,6-difluoro-1H-indol-3-yl)-2-methyl-2-((5-methylpyridin-2-yl)oxy)propanamide], 5 to 100 µM. Regarding `CCOc1cccc(CCC(=O)Nc2c[nH]c3cc(F)c(F)cc23)c1` [Compound 106, N-(5,6-difluoro-1H-indol-3-yl)-3-(3-ethoxyphenyl)propanamide], the EC50 was 0.2 to 1 µM. `N#Cc1cc(CC(=O)Nc2c[nH]c3cc(F)c(F)cc23)ccn1` [Compound 107, 2-(2-cyanopyridin-4-yl)-N-(5,6-difluoro-1H-indol-3-yl)acetamide]: the 50% effective concentration (EC50) was 1 to 5 µM. To `COc1cccc(CCC(=O)Nc2c[nH]c3cc(F)c(F)cc23)n1` [Compound 108, N-(5,6-difluoro-1H-indol-3-yl)-3-(6-methoxypyridin-2-yl)propanamide] belongs 5 to 100 µM. Next, `C/C(=C\c1ccccn1)C(=O)Nc1c[nH]c2cc(F)c(F)cc12` [Compound 109, (E)-N-(5,6-difluoro-1H-indol-3-yl)-2-methyl-3-(pyridin-2-yl)acrylamide]: 1 to 5 µM; `COc1ccc(/C=C(\C)C(=O)Nc2c[nH]c3cc(F)c(F)cc23)cc1` [Compound 110, (E)-N-(5,6-difluoro-1H-indol-3-yl)-3-(4-methoxyphenyl)-2-methylacrylamide]: 0.2 to 1 µM. Next, `O=C(Nc1c[nH]c2cc(F)c(F)cc12)C1CCN(S(=O)(=O)c2ccc(F)cc2)C1` (centres unmarked) [Compound 111, N-(5,6-difluoro-1H-indol-3-yl)-1-((4-fluorophenyl)sulfonyl)pyrrolidine-3-carboxamide]: 1 to 5 µM; `COc1cccc(N2CC(C(=O)Nc3c[nH]c4cc(F)c(F)cc34)CC2=O)c1` (centres unmarked) [Compound 112, N-(5,6-difluoro-1H-indol-3-yl)-1-(3-methoxyphenyl)-5-oxopyrrolidine-3-carboxamide]: 5 to 100 µM; `C[C@H](NC1CCCCC1)C(=O)Nc1c[nH]c2cc(F)c(F)cc12` [Compound 113, (S)-2-(cyclohexylamino)-N-(5,6-difluoro-1H-indol-3-yl)propanamide]: 5 to 100 µM. Take `O=C(Nc1c[nH]c2cc(F)c(F)cc12)C1CC(Oc2ccccc2)C1` (centres unmarked) [Compound 114, N-(5,6-difluoro-1H-indol-3-yl)-3-phenoxycyclobutane-1-carboxamide]: the EC50 is 1 to 5 µM.

On to `O=C(Nc1c[nH]c2cc(F)c(F)cc12)[C@H]1CCN(C(=O)OCc2ccccc2)C1` [Compound 115, benzyl (S)-3-((5,6-difluoro-1H-indol-3-yl)carbamoyl)pyrrolidine-1-carboxylate], for which the EC50 fell in the range of 5 to 100 µM. To `COc1ccc(CCC(=O)Nc2c[nH]c3cc(F)c(F)cc23)cn1` [Compound 116, N-(5,6-difluoro-1H-indol-3-yl)-3-(6-methoxypyridin-3-yl)propanamide] belongs 5 to 100 µM.

`O=C(CCc1ccc(C(F)(F)F)nc1)Nc1c[nH]c2cc(F)c(F)cc12` [Compound 117, N-(5,6-difluoro-1H-indol-3-yl)-3-(6-(trifluoromethyl)pyridin-3-yl)propanamide] registered a concentration for a half-maximal effect (EC50) of 1 to 5 µM. Next, `O=C(Nc1c[nH]c2cc(F)c(F)cc12)C1CN(Cc2ccccc2)CCO1` (centres unmarked) [Compound 118, 4-benzyl-N-(5,6-difluoro-1H-indol-3-yl)morpholine-2-carboxamide]: 1 to 5 µM. The molecule `O=C(CCc1cncc(C(F)(F)F)c1)Nc1c[nH]c2cc(F)c(F)cc12` [Compound 119, N-(5,6-difluoro-1H-indol-3-yl)-3-(5-(trifluoromethyl)pyridin-3-yl)propanamide] gave an EC50 of 1 to 5 µM. `Cc1ccc(OCCC(=O)Nc2c[nH]c3cc(F)c(F)cc23)cc1` [Compound 120, N-(5,6-difluoro-1H-indol-3-yl)-3-(p-tolyloxy)propanamide] showed an EC50 of 0.2 to 1 µM. Next, `Cc1cc(CC(=O)Nc2c[nH]c3cc(F)c(F)cc23)cnc1N1CCC(F)(F)CC1` [Compound 126, N-(5,6-difluoro-1H-indol-3-yl)-2-(6-(4,4-difluoropiperidin-1-yl)-5-methylpyridin-3-yl)acetamide]: 1 to 5 µM; `O=C(Cc1cccc(OC(F)F)c1)Nc1c[nH]c2cc(F)c(F)cc12` [Compound 127, N-(5,6-difluoro-1H-indol-3-yl)-2-(3-(difluoromethoxy)phenyl)acetamide]: 5 to 100 µM; `CCOc1cccc(/C=C/C(=O)Nc2c[nH]c3cc(F)c(F)cc23)c1` [Compound 128, (E)-N-(5,6-difluoro-1H-indol-3-yl)-3-(3-ethoxyphenyl)acrylamide]: 0.2 to 1 µM. To `O=C(Cc1ccc(OC(F)(F)F)cc1)Nc1c[nH]c2cc(F)c(F)cc12` [Compound 129, N-(5,6-difluoro-1H-indol-3-yl)-2-(4-(trifluoromethoxy)phenyl)acetamide] belongs 1 to 5 µM; to `CC(Oc1ccc(OC(F)(F)F)cc1)C(=O)Nc1c[nH]c2cc(F)c(F)cc12` (centres unmarked) [Compound 130, N-(5,6-difluoro-1H-indol-3-yl)-2-(4-(trifluoromethoxy)phenoxy)propanamide], 1 to 5 µM. To `CC(Oc1ccc(C(F)(F)F)cc1)C(=O)Nc1c[nH]c2cc(F)c(F)cc12` (centres unmarked) [Compound 131, N-(5,6-difluoro-1H-indol-3-yl)-2-(4-(trifluoromethyl)phenoxy)propanamide] belongs 1 to 5 µM; to `COc1ccc(CC(=O)Nc2c[nH]c3cc(F)c(F)cc23)cc1C(F)(F)F` [Compound 132, N-(5,6-difluoro-1H-indol-3-yl)-2-(4-methoxy-3-(trifluoromethyl)phenyl)acetamide], 5 to 100 µM; to `COc1ccc(CC(C)(C)C(=O)Nc2c[nH]c3cc(F)c(F)cc23)cc1` [Compound 133, N-(5,6-difluoro-1H-indol-3-yl)-3-(4-methoxyphenyl)-2,2-dimethylpropanamide], 5 to 100 µM. `CC(C)(Oc1ccc(F)cc1)C(=O)Nc1c[nH]c2cc(F)c(F)cc12` [Compound 134, N-(5,6-difluoro-1H-indol-3-yl)-2-(4-fluorophenoxy)-2-methylpropanamide] displayed a concentration for a half-maximal effect (EC50) of 5 to 100 µM. Next, `N#Cc1cccc(/C=C/C(=O)Nc2c[nH]c3cc(F)c(F)cc23)c1` [Compound 135, (E)-3-(3-cyanophenyl)-N-(5,6-difluoro-1H-indol-3-yl)acrylamide]: 0.2 to 1 µM. To `O=C(/C=C/c1ccc(OC(F)(F)F)cc1)Nc1c[nH]c2cc(F)c(F)cc12` [Compound 136, (E)-N-(5,6-difluoro-1H-indol-3-yl)-3-(4-(trifluoromethoxy)phenyl)acrylamide] belongs 0.2 to 1 µM; to `Cc1nnc(CC(=O)Nc2c[nH]c3ccc(-c4cnn(-c5ccc(C(F)(F)F)cc5)c4)cc23)o1` [Compound 138, 2-(5-methyl-1,3,4-oxadiazol-2-yl)-N-(5-(1-(4-(trifluoromethyl)phenyl)-1H-pyrazol-4-yl)-1H-indol-3-yl)acetamide], 0.2 to 1 µM; to `O=C(CCc1cnoc1)Nc1c[nH]c2ccc(-c3cnn(-c4ccc(C(F)(F)F)cc4)c3)cc12` [Compound 139, 3-(isoxazol-4-yl)-N-(5-(1-(4-(trifluoromethyl)phenyl)-1H-pyrazol-4-yl)-1H-indol-3-yl)propanamide], 0.2 to 1 µM.

Take `O=C(CCc1cn[nH]c1)Nc1c[nH]c2ccc(-c3cnn(-c4ccc(C(F)(F)F)cc4)c3)cc12` [Compound 140, 3-(1H-pyrazol-4-yl)-N-(5-(1-(4-(trifluoromethyl)phenyl)-1H-pyrazo1-4-yl)-1H-indol-3-yl)propanamide]: the EC50 fell in the range of 0.2 to 1 µM. To `O=C(Cc1nnn[nH]1)Nc1c[nH]c2ccc(-c3cnn(-c4ccc(C(F)(F)F)cc4)c3)cc12` [Compound 141, 2-(1H-tetrazol-5-yl)-N-(5-(1-(4-(trifluoromethyl)phenyl)-1H-pyrazol-4-yl)-1H-indol-3-yl)acetamide] belongs 5 to 100 µM.
